According to patent US20020137929A1, “1 - (3-heterocyclylphenyl) isothiourea, -isourea, -guanidine and -amidine herbicidal agents” (Intellectual Property Department, BASF Aktiengesellschaft, priority 1998, published 2002):

Experiments:
[1] = test system: SAGPY (Arrowhead (Pygmaea)); assay: Preemergence weed control under flooded paddy conditions; type: in vivo, Sagittaria pygmaea; conditions: rated 3-4 weeks after treatment
Method in brief: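 Seeds or propagules sown in silt loam kept flooded 1.5-3 cm; compounds in 50/50 acetone/water pipetted into flood water at about 0.0313 to 0.500 kg/ha. Greenhouse; visual 0-9 rating versus untreated control 3-4 weeks after treatment.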

[2] = test system: ECHORC (Watergrass (Calif.)); assay: as above; type: in vivo, Echinochloa oryzoides; conditions: rated 3-4 weeks after treatment
Method in brief: (§1)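 Flooded-pot preemergence screen with silt loam and seeds in the upper 0.5 cm. Dose about 0.0313 to 0.500 kg/ha, delivered into flood water; visual 0-9 score after 3 to 4 weeks.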

MOOVA (Monochoria) = assay: Postemergence weed control under flooded paddy conditions; type: in vivo, Monochoria vaginalis; conditions: postemergence weeds
Source text: Results of herbicide evaluation are expressed on a rating scale (0-9). The scale is based upon a visual observation of plant stand, vigor, malformation, size, chlorosis and overall plant appearance as compared with a control.
Plastic containers containing weeds which are 3 to 5 cm tall and rice seedlings at the 1.5 to 2.5 leaf stage are flooded with water. The water is maintained at 1.5 to 3 cm above the soil surface for the duration of the experiment. Test compounds are applied as aqueous/ acetone mixtures 50/50 v/v directly into the flood water to provide the equivalent of about 0.0313 to 0.500 kg/ha of active ingredient. The treated containers are placed on greenhouse benches and cared for in accordance with conventional greenhouse procedures. Three to four weeks after treatment, the test is terminated and each container is examined and herbicidal effect rated according to the rating system provided in Example 37. The compounds evaluated are reported by compound number given in Example 37.

CYPIR (Rice Flatsedge) = assay: Preemergence weed control under flooded paddy conditions; type: in vivo, Cyperus iria; conditions: rated 3-4 weeks after treatment
Method in brief: as §1

[3] = test system: TRZAWR (Wheat, Winter, cv Riband); assay: Preemergence herbicidal evaluation; type: in vivo, Triticum aestivum; conditions: preemergence, rated 4-5 weeks after treatment, 0-9 scale
Method in brief: (§2)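 Seeds were mixed with potting soil and planted on about one inch of soil, then sprayed with test compound in aqueous acetone at about 0.0156 to 0.500 kg per hectare. Plants grew under standard greenhouse care and were visually rated 0-9 against untreated controls 4-5 weeks post-treatment.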

ABUTH (Velvetleaf) = assay: Preemergence herbicidal evaluation; type: in vivo, Abutilon theophrasti; conditions: preemergence, rated 4-5 weeks after treatment, 0-9 scale
Method in brief: as §2

[4] = Rate 0.0313 kg/ha, rated 3 to 4 weeks after treatment
[5] = Rate 0.0625 kg/ha, rated 3 to 4 weeks after treatment
[6] = Rate 0.1250 kg/ha, rated 3 to 4 weeks after treatment
[7] = Rate 0.2500 kg/ha, rated 3 to 4 weeks after treatment

SMILES | ECHORC herbicidal effect rating ([2]; 0.0313 kg/ha) | ECHORC herbicidal effect rating ([2]; 0.0625 kg/ha) | ECHORC herbicidal effect rating ([2]; 0.1250 kg/ha) | ECHORC herbicidal effect rating ([2]; 0.2500 kg/ha) | Herbicidal rating MOOVA (MOOVA (Monochoria); [4]) | Herbicidal rating MOOVA (MOOVA (Monochoria); [5]) | Herbicidal rating MOOVA (MOOVA (Monochoria); [6]) | Herbicidal rating MOOVA (MOOVA (Monochoria); [7]) | CYPIR herbicidal effect rating (CYPIR (Rice Flatsedge); 0.0313 kg/ha) | CYPIR herbicidal effect rating (CYPIR (Rice Flatsedge); 0.0625 kg/ha) | CYPIR herbicidal effect rating (CYPIR (Rice Flatsedge); 0.1250 kg/ha) | CYPIR herbicidal effect rating (CYPIR (Rice Flatsedge); 0.2500 kg/ha) | TRZAWR rating ([3]; 0.0313 kg/ha) | TRZAWR rating ([3]; 0.0625 kg/ha) | TRZAWR rating ([3]; 0.1250 kg/ha) | TRZAWR rating ([3]; 0.2500 kg/ha) | TRZAWR rating ([3]; 0.5000 kg/ha) | ABUTH rating (ABUTH (Velvetleaf); 0.0313 kg/ha) | ABUTH rating (ABUTH (Velvetleaf); 0.0625 kg/ha) | ABUTH rating (ABUTH (Velvetleaf); 0.1250 kg/ha) | other results
CCOC(=O)CN1C(=O)C(CC(=O)OC(C)C)SC1=Nc1cc(-n2c(=O)cc(C(F)(F)F)n(C)c2=O)c(F)cc1Cl (centres unmarked) [Compound 55, 2-{{2-Chloro-5-[3,6-dihydro-3-methyl-2,6-dioxo-4-(trifluoromethyl)-1(2H)-pyrimidinyl]-4-fluoro-phenyl}imino}-4-oxo-3,5-thiazolidinediacetic acid, 3-ethyl isopropyl ester] |  |  |  |  |  |  |  |  |  |  |  |  |  |  |  |  |  |  |  |  | Herbicidal rating SAGPY ([1]; 0.0313 kg/ha): 0.0; Herbicidal rating SAGPY ([1]; 0.0625 kg/ha): 0.0; Herbicidal rating SAGPY ([1]; 0.1250 kg/ha): 0.0; Herbicidal rating SAGPY ([1]; 0.2500 kg/ha): 0.0; Herbicidal rating ECHORC ([2]; 0.0313 kg/ha): 7.0; Herbicidal rating ECHORC ([2]; 0.0625 kg/ha): 7.0; Herbicidal rating ECHORC ([2]; 0.1250 kg/ha): 7.0; Herbicidal rating ECHORC ([2]; 0.2500 kg/ha): 7.0; Herbicidal rating MOOVA (MOOVA (Monochoria); rate 0.0313 kg/ha, 3-4 weeks after treatment): 9.0; Herbicidal rating MOOVA (MOOVA (Monochoria); rate 0.0625 kg/ha, 3-4 weeks after treatment): 9.0; Herbicidal rating MOOVA (MOOVA (Monochoria); rate 0.1250 kg/ha, 3-4 weeks after treatment): 9.0; Herbicidal rating MOOVA (MOOVA (Monochoria); rate 0.2500 kg/ha, 3-4 weeks after treatment): 9.0; Herbicidal rating CYPIR (CYPIR (Rice Flatsedge); 0.0313 kg/ha): 9.0; Herbicidal rating CYPIR (CYPIR (Rice Flatsedge); 0.0625 kg/ha): 9.0; Herbicidal rating CYPIR (CYPIR (Rice Flatsedge); 0.1250 kg/ha): 9.0; Herbicidal rating CYPIR (CYPIR (Rice Flatsedge); 0.2500 kg/ha): 9.0
C=CCN1C(=O)C(CC(=O)NS(C)(=O)=O)SC1=Nc1cc(-n2c(=O)cc(C(F)(F)F)n(C)c2=O)c(F)cc1Cl (centres unmarked) [Compound 96, 3-Allyl-2-{{2-chloro-5-[3,6-dihydro-3-methyl-2,6-dioxo-4-(trifluoromethyl)-1(2H)-pryimidinyl]-4-fluorophenyl}imino}-N-(methylsulfonyl)-4-oxo-5-thiazolidineacetamide] | 0.0 | 0.0 | 0.0 | 3.0 | 2.0 | 2.0 | 3.0 | 3.0 | 0.0 | 5.0 | 6.0 | 6.0 | 0.0 | 0.0 | 0.0 | 1.0 | 1.0 | 1.0 | 9.0 | 9.0 | ABUTH rating (ABUTH (Velvetleaf); 0.2500 kg/ha): 9.0; ABUTH rating (ABUTH (Velvetleaf); 0.5000 kg/ha): 9.0
CCOC(=O)CN1C(=O)C(CC(=O)NO)S/C1=N/c1cc(-n2c(=O)cc(C(F)(F)F)n(C)c2=O)c(F)cc1Cl (centres unmarked) [Compound 98, Ethyl 2-{{2-chloro-5-[3,6-dihydro-3-methyl-2,6-dioxo-4-(trifluoromethyl)-1(2H)-pyrimidinyl]-4-fluorophenyl}imino}-5-[(hydroxycarbamoyl)methyl]-4-oxo-3-thiazolidineacetate] | 0.0 | 0.0 | 1.0 | 3.0 | 9.0 | 9.0 | 9.0 | 9.0 | 9.0 | 9.0 | 9.0 | 9.0 | 0.0 | 0.0 | 0.0 | 1.0 | 3.0 | 0.0 | 2.0 | 6.0 | TRZAWR rating ([3]; 0.0156 kg/ha): 0.0; ABUTH rating (ABUTH (Velvetleaf); 0.0156 kg/ha): 0.0; ABUTH rating (ABUTH (Velvetleaf); 0.2500 kg/ha): 6.0; ABUTH rating (ABUTH (Velvetleaf); 0.5000 kg/ha): 9.0
